Measured values: ChEMBL document CHEMBL1156691, “Structure of a novel thrombin inhibitor with an uncharged D-amino acid as P1 residue” (Eur J Med Chem, 2008)

Experiments:
Prothrombin [1] = target: T1, Prothrombin (Homo sapiens, UniProt P00734); experiment: Inhibition of human thrombin
Prothrombin [2] = target: T1, Prothrombin; experiment: Binding affinity to thrombin

| Structure (SMILES) | Ki (Prothrombin [1]) [nM] | Kd (Prothrombin [2]) [mM] |
| --- | --- | --- |
| N=C(N)NCCCC[C@@H](NC(=O)[C@@H](Cc1ccc(O)cc1)NC(=O)[C@@H]1CCN1C(=O)[C@H](CC1CCCCC1)NC(=O)[C@H]1CC[C@H](CNC(=N)N)CC1)C(N)=O | 3 |  |
| NCCc1c[nH]c2cc(F)ccc12 |  | 6.9 |
